Patent publication US20250221963A1 (GH RESEARCH IRELAND LIMITED, priority 2022, published 2025)
Several values for one entry are separate records, joined by “and”; a condition that tells them apart may be missing. Identical values can stand only once.

Tests used:
[1] = test system: Salmonella typhimurium TA98, TA100, TA1535 and TA1537; test: Bacterial mutation test, Salmonella typhimurium; format: cell-based; settings: up to 5000 μg/plate, absence and presence of S-9
Experimental: These conditions included treatments at concentrations up to 5000 μg/plate (the maximum recommended concentration according to current regulatory guidelines), in the absence and in the presence of a rat liver metabolic activation system (S-9).

[2] = Pharmacokinetics of 5-MeO-DMT and bufotenine after inhalation; format: in vivo, human
Experimental: Blood samples were obtained at 1; 2; 4; 7; 10; 15; 20; 30; 45 min and 1; 1.5; 2; 3; 4 hours after administration.
PK parameters were generated by algebraic analysis of the concentration versus time plots for each individual. The analysis was carried out using the software Phoenix WinNonlin 6.3.

[3] = test system: patients with postpartum depression (PPD); test: Clinical trial of inhaled 5-MeO-DMT in postpartum depression; settings: PPD patient
Experimental: The single-arm, open-label clinical trial will involve 15 adult female patients with clinically diagnosed postpartum depression (PPD).
The second dose (12 mg) will only be administered if: • a. […] The 6 mg dose was safe and well-tolerated according to the investigator, • c. Any psychoactive effects (PsE) of the prior dose have subsided, and • d. Pre-dose vital parameters and forced expiratory volume in one second (FEV1) are in normal range, or if outside of the normal range, are not clinically significant according to the investigator. • 3. Similarly, a third dose (18 mg) will only be administered if: • a. […] The 12 mg dose was safe and well-tolerated according to the investigator, and • c. Any PsE of the prior dose have subsided, and • d. Pre-dose vital parameters and forced expiratory volume in one second (FEV1) are in normal range, or if outside of the normal range, are not clinically significant according to the investigator.
The patients will be assessed for a peak psychedelic experience (based on a patient-scored visual analogue scale, the PE scale), sedation, and other endpoints after dosing. Follow-up visits are planned for Day 1, and Day 7 after the dosing day.
The following criteria must be met by all patients considered for clinical trial participation: • 1. Is female and in the age range between 18 and 45 years (inclusive) at screening. • 2. Has a body mass index (BMI) in the range of 18.5 and 35 kg/m^2 (inclusive) at screening. • 3. Meets the trial criteria for PPD as assessed by a trial psychiatrist or registered psychologist: • a. Diagnosis of Major Depressive Disorder without psychotic features, confirmed by the Mini-International Neuropsychiatric Interview (MINI), with peri-partum onset that began no earlier than gestation and no later than the first 4 weeks postpartum. • b. Has a Montgomery-Åsberg Depression Rating Scale (MADRS) total score of equal to or greater than 28 at screening and pre-dose on Day 0. • 6. […] Patients must have a negative pregnancy test at screening and on the pre-test day (Day −1). • 5. Is willing to delay start of other antidepressant or anxiety medication until after the end of the trial at Day 7 and agrees to keep any psychotherapy unchanged during the trial.
A potential patient who meets any of the following key exclusion criteria will be excluded from participation in this trial: • 1. Has, based on history, psychiatric assessment, and evaluation of the MINI, a current or prior diagnosis of bipolar disorder, a manic or hypomanic episode, a psychotic disorder, Major Depressive Disorder (MDD) or other mood disorder with psychotic features, obsessive compulsive disorder, post-traumatic stress disorder (PTSD), autism spectrum disorder, borderline personality disorder, schizophrenia, delusional disorder, paranoid personality disorder, schizoaffective disorder, clinically significant intellectual disability, or any other psychiatric comorbidity that renders the patient unsuitable for the trial according to the investigator's judgment. • 2. Has one or more first or second degree relatives with a current or previously diagnosed bipolar disorder, psychotic disorder or other mood disorder (including MDD) with psychotic features. • 3. Is in the judgement of a trial psychiatrist or registered psychologist, at significant risk for suicide based on history, psychiatric assessment, and evaluation of suicidal ideation and suicidal behaviour based on the Columbia-Suicide Severity Rating Scale (C-SSRS). • 4. Has taken anti-depressive medication within 14 days or 5 half-lives (whichever is longer) prior to dosing (exception: within the last 5 weeks in the case of fluoxetine). • 5.

SMILES: COc1ccc2[nH]cc(CCN(C)C)c2c1 [5-MeO-DMT]
- Induction of mutation [1]: did not induce mutation
- Detectability in the plasma ([2]; after 3 hours, 6, 12, 18 mg): no longer detectable
- Accumulation upon repeated administration ([2]; repeated within 1 to 4 hours): No accumulation is observed
- BIMF Adjustment Δ (Day 7) [3]: 1
- BIMF Infant Care Δ (Day 7) [3]: 0
- BIMF Management Δ (Day 7) [3]: 5
- BIMF Mother-Child Interaction Δ (Day 7) [3]: 2
- BIMF Psychological Well-being Δ (Day 7) [3]: 9
- BIMF Self-Care Δ (Day 7) [3]: 4
- BIMF Social Support Δ (Day 7) [3]: 1
- BIMF TOTAL Δ (Day 7) [3]: 13
- ECG (3 hours), safety laboratory analyses (7 days), CADSS (3 hours, 1 day, 7 days) [3]: unremarkable
- MADRS response and MADRS remission criteria [3]: fulfilled standard criteria for MADRS response
- Reported adverse events (cramping left abdominal pain and headache, Day 0) [3]: mild, short-lasting and resolved spontaneously
- Time to clinical remission after administration according to the IDR [3]: ≤ 2 h
- Tolerability of the inhalation procedure [3]: well tolerated with no inhalation-related adverse events
- Total MADRS improvement ([3]; 2 hr): 24
- Total MADRS score ([3]; 2 hr, baseline 29): 5
- BPRS Tension improvement ([3]; Day 1): 5
- Total MADRS improvement ([3]; Day 1): 29
- Total MADRS score ([3]; Day 1, baseline 29): 0
- BIMF Adjustment % Improvement ([3]; Day 7): 20.00%
- BIMF Infant Care % Improvement ([3]; Day 7): 0.00%
- BIMF Management % Improvement ([3]; Day 7): 18% and 17.86%
- BIMF Mother-Child Interaction % Improvement ([3]; Day 7): 13.33%
- BIMF Psychological Well-being % Improvement ([3]; Day 7): 20.45%
- BIMF Self-Care % Improvement ([3]; Day 7): 44% and 44.44%
- BIMF Social Support % Improvement ([3]; Day 7): 5.88%
- BIMF total score improvement ([3]; Day 7): 14%
- Total MADRS improvement ([3]; Day 7): 28
- BIMF functional domain Adjustment score ([3]; Day 7, Day 0 score 5, maximum 12): 6
- BIMF item 6 (people in my life that I can trust to care for my baby) score ([3]; Day 7, Day 0 score 6): 6
- BIMF functional domain Self-Care score ([3]; Day 7, Day 0 score 9, maximum 18): 13
- BIMF functional domain Infant Care score ([3]; Day 7, Day 0 score 12, maximum 12): 12
- BIMF functional domain Mother-Child Interaction score ([3]; Day 7, Day 0 score 15, maximum 18): 17
- BIMF functional domain Social Support score ([3]; Day 7, Day 0 score 17, maximum 18): 18
- BIMF functional domain Management score ([3]; Day 7, Day 0 score 28, maximum 36): 33
- BIMF functional domain Psychological Well-being score ([3]; Day 7, Day 0 score 44, maximum 60): 53
- Total MADRS score ([3]; Day 7, baseline 29): 1
- BPRS Tension improvement ([3]; Discharge): 5
- Changes in vital parameters ([3]; shortly after administration): temporary, clinically non-relevant increase in heart rate and blood pressure
